Measurements as given in patent US20200255492A1, “LEPTIN PEPTIDES AND THEIR USE FOR TREATING NEUROLOGICAL DISORDERS” (UNIVERSITY OF DUNDEE, priority 2017, published 2020).

Experiments:
[1] = test system: tau in hippocampal neurons; experiment: Immunocytochemistry of endogenous tau and tau/PSD-95 co-localization; format: cell-based, Sprague-Dawley rats; conditions: Aβ1-42 1 μM plus leptin/fragment 10 nM or SB216763 100 nM
Method: Hippocampal cultures were prepared as previously (Moult et al, 2010). Neonatal Sprague-Dawley rats (1-3 d old) were […] killed by cervical dislocation in accordance with the UK Animals (Scientific Procedures Act) 1986 legislation. Hippocampi were removed, and after washing in HEPES-buffered saline comprising (mM) 135 NaCl; 5 KCl; 1 CaCl2; 1 MgCl2; 10 HEPES; and 25 D-glucose at […], were treated with papain (1.5 mg ml21; Sigma-Aldrich) for 20 min at 37° C. Dissociated cells were plated onto sterile dishes (35 mm diameter; Greiner Bio-One, Kremsmun-ster, Austria) treated with poly-D-lysine (20 μg ml^−1; 1-2 h). Cultures were maintained in serum replacement medium (SR2; Sigma-Aldrich) in a humidified atmosphere of 5% CO2 and […] at 37° C. for up to 2 wk.
Immunocytochemistry was conducted on primary hippocampal cultures (7-14 DIV). Prior to labelling with antibodies, neurons were washed with HBS containing glycine (0.01 mM) and incubated with agents for 1 h at room temperature. Cultures were fixed with 4% paraformaldehyde for 5 min, then permeabilized with 0.1% Triton X-100 for 5 min. To label endogenous tau, neurons were incubated with a rabbit anti-tau (Ab-217; Genscript) primary antibody (1:200 dilution) at room temperature for 30 min, followed by incubation with an Alexa Fluor555 donkey anti-rabbit (1:250, Invitrogen) secondary antibody for an additional 30 min duration. To assess the % co-localisation of tau at synapses, neurons were dual labelled with an antibody against the synaptic marker, PSD-95 (mouse anti-PSD-95; 1:500, Thermo Fisher) followed by application of an Alexa Fluor488 goat anti-mouse secondary antibody (1:500, Invitrogen).
A Zeiss LSM510 confocal microscope was used for image acquisition and analysis. Images were obtained using a 10-s scan speed in single tracking mode or multi-tracking mode for dual labelling experiments. The intensity of immunostaining was measured off-line using Lasersharp software (Zeiss Lasersharp), whereby analysis lines of 50 μm length were drawn along randomly selected dendritic regions. All data were obtained from at least three different cultures from different animals. Imaging conditions including illumination intensity and photomultiplier gains were kept constant between treatments for each experiment. In addition, data were normalised relative to the mean fluorescence intensity obtained from control neurons. For synaptic co-localisation experiments, tau and PSD-95 positive immunostaining were compared. The number of tau-positive sites that co-localized with PSD-95 positive sites were counted and expressed as a percentage of total positive sites (peaks of intensity).

[2] = test system: differentiated human neural cells (SH-SY5Y); experiment: LDH release assay (membrane leakage, cell death); format: cell-based; conditions: 10 μM Aβ1-42; for reduction of LDH release compared with Aβ1-42 alone, hexamer study: 10 nM, n=11
Method: (§1) The human neuroblastoma cell line, SH-SY5Y (ECACC, UK) was maintained in Dulbecco's Modified Eagle Medium supplemented with glucose ([…]) and 10% (v/v) cosmic calf serum (Fisher Scientific, UK) at 37° C. in a humidified atmosphere of 5% CO2, 95% air and allowed to reach 70-80% confluence before seeding. Cells (passage 10-18) were plated at 10 000 cells per well in 96 well tissue culture plates (Nunc, VWR, UK) and at a density of 2×10^5 cells in 35 mm dishes for protein extraction. To induce differentiation, cells were cultured in DMEM supplemented with glucose ([…]), 1% (v/v) cosmic calf serum and 10 μM retinoic acid for 5 days. Thereafter they were incubated in DMEM supplemented with glucose ([…]), serum replacement 2 (2%; Sigma, UK) and 18 μM 5-fluorodeoxyuridine to inhibit proliferation of undifferentiated cells. The 50% of the medium was changed every 2-3 days and pharmacological treatment was carried out 7 days after switching to this medium. Reagents used were (from Sigma UK unless stated) 0.1-10 nM human leptin and leptin (116-130); 0.1-10 nM leptin (22-56; Bachem; Switzerland); 10 nM leptin (116-121) leptin (117-122), leptin (124-129) or leptin (125-130; all Severn Biotech, UK); 5 μM copper chloride; […], 5 μM WP1066 or 50 nM wortmannin. All treatments were added to the culture at the same time and survival assays were carried out after 96 h treatment. Protein samples for signaling ELISA were extracted 3 h after exposure to the relevant reagents and for biomarker expression after 72 hours.
(§2) The concentration of lactate dehydrogenase (LDH) in the culture medium or the mitochondrial activity within cells was used to monitor the level of cell death, as previously (Oldreive and Doherty 2010). In certain experiments, a Crystal violet assay was used to assess total cell number. Cells were fixed in neutral buffered formalin and washed 3 times in PBS prior to staining with 0.01% crystal violet acetate for 5 min. Plates were washed 5-10 times in dH2O and cells solubilised in 100 μl dimethyl sulfoxide (DMSO) before reading the absorbance on a Biohit BP100 plate reader. For all assays, data is expressed as percentage relative to control, untreated wells to normalize for differences in plating density between individual experiments.
To determine whether leptin (116-130) has neuroprotective actions, the effects of leptin (116-130) on the viability of differentiated human neural cells (SH-SY5Y) was examined after exposure to either 5 μM CuCl2 or 10 μM Aβ1-42. Cells were treated with the toxin alone or with a range of concentrations (10-0.1 nM) of leptin or leptin (116-130). […] Thus like leptin, treatment with leptin (116-130) reduces neuronal death in response to AD-linked toxins in vitro.

acute hippocampal slices = experiment: HFS-induced LTP with leptin hexamers; format: cell-based, Sprague Dawley rats; conditions: 10 nM for 50 min prior to HFS; control LTP 117±10.8% / 125±4.9%
Method: Parasagittal hippocampal slices (300 μm) were prepared from either P13-21 or 12-24-week-old male Sprague Dawley rats as previously (Moult et al. 2010). Brains were rapidly removed and placed in ice-cold artificial CSF (aCSF; bubbled with 95% O2 and 5% CO2) containing the following (in mm): 124 NaCl, 3 KCl, 26 NaHCO3, 1.25 NaH2PO4, 2 CaCl2, 1 MgSO4, and 10 d-glucose. Once prepared, parasagittal slices were allowed to recover at room temperature in oxygenated aCSF for 1 h before use. Slices were transferred to a submerged chamber maintained at room temperature and perfused with artificial cerebrospinal fluid at 2 ml min^−1. Standard extracellular recordings were used to monitor evoked field excitatory postsynaptic potentials (fEPSP) from stratum radiatum. The Schaffer collateral-commissural pathway was stimulated (constant voltage; 0.1 ms) at 0.033 Hz, using a stimulus intensity that evoked a peak amplitude ˜50% of the maximum. Synaptic potentials were low pass filtered at 2 kHz and digitally sampled at 10 kHz. The fEPSP slope was measured and expressed relative to baseline. Synaptic records are the average of 4 consecutive responses and stimulus artefacts are blanked for clarity. Recordings were made using an Axopatch 200B amplifier and analyzed using LTP v2.4 software. In synaptic plasticity studies, the degree of potentiation was calculated 30-35 min after HFS and expressed as a percentage of baseline±standard error of mean (SEM).
To determine if the leptin hexamers influence the magnitude of activity-dependent synaptic plasticity, standard extracellular recording techniques were used to assess the effects of leptin (116-121, 117-122, 118-123, 120-125, 124-129 and 125-130) on the magnitude of LTP induced by high frequency stimulation (100 Hz, 1 s) in acute hippocampal slices. […] In parallel studies, application of leptin (118-123; 158±3.8%; n=7; p<0.05; FIG. 8) or leptin (120-125; to 163±8.8% of baseline; n=5; p<0.05) also facilitated LTP, compared to control LTP (FIG. 8).

[3] = test system: differentiated SH-SY5Y human neuronal cells; experiment: MTT assay of mitochondrial activity (cell viability); format: cell-based; conditions: 10 nM; n=11
Method: as §1, §2
To confirm the findings of the LDH assay, cells were treated with Aβ1-42 alone or with a 10 nM of leptin, leptin (116-130) or the listed hexamers, and mitochondrial activity, as a measure of cell viability, determined by MTT assay. A significant increase in mitochondrial activity was detected following treatment with either leptin or leptin (116-130; both 10 nM). […] Thus for Aβ1-42-treated cells, 10 nM leptin and 10 nM leptin (116-130) increased mitochondrial activity by 32.6±5.2% and 40.9+5.8% respectively compared with Aβ1-42 alone (n=11; P<0.001; FIG. 11B); an effect that was mirrored by 10 nM leptin (116-121) and leptin (117-122); 43.61±3.9% and 40.5±3.7*% (n=11; P<0.001; FIG. 11B), but not by 10 nM leptin (124-129) or leptin (125-130) (n=11; P>0.5; FIG. 11B). This reinforces the findings from the LDH assay that similar to either leptin or leptin (116-130), treatment with leptin (116-121) or leptin (117-122) reduces neuronal death in response to AD-linked toxins in vitro.

[4] = test system: phosphorylated tau (p-tau); experiment: ELISA of phosphorylated tau relative to α-tubulin; format: cell-based, human; conditions: 10 nM; n=5
Method: as §1
Protein from cultures was extracted into 500 μl Tris-buffered saline containing protease inhibitor cocktail, and a Bradford assay used to determine protein concentration. Samples were diluted to give equal loading onto ELISA plates. Commercially available ELISA kits were used in accordance with the manufacturer's instructions to determine the ratio of pan-STAT3 to phospho-STAT3 (Sigma, UK) and pan-Akt to phospho-Akt (Sigma, UK) and the levels of alpha-tubulin and phosphorylated tau (Sigma, UK). Each protein sample was run in duplicate using samples derived from at least 5 biological repeats.
Hyper-phosphorylation of tau is the underpinning mechanism of the development of neurofibrillary tangles—one of the key pathological feature of AD. Human SH-SY5Y neuronal cells were exposed to Aβ1-42 alone or in combination with 10 nM leptin, leptin (116-130), leptin (116-121), leptin (117-122), leptin (124-129) or leptin (125-130). Protein was extracted for ELISA assay and the ratio of p-tau to the house-keeping protein α-tubulin determined (FIG. 11C). […] Thus for Aβ1-42-treated cells, 10 nM leptin and 10 nM leptin (116-130) reduced p-tau expression by 56.2±8.0% and 58.9+4.6% respectively compared with Aβ1-42 alone (n=5; P<0.001; FIG. 11C); an effect that was mirrored by 10 nM leptin (116-121) and leptin (117-122); 58.1±4.0% and 45.48±6.1% (n=5; P<0.001 and P<0.01 respectively; FIG. 11C), but not by 10 nM leptin (124-129) or leptin (125-130)(n=5; P>0.5; FIG. 11C).

[5] = test system: GluA1 surface expression in cultured hippocampal neurons; experiment: Surface labelling of AMPA receptor subunit GluA1 (immunocytochemistry); format: cell-based, Sprague Dawley rats; conditions: for GluA1 surface expression, hexamer study: 10 nM, 15 min

## Cn1cc(C2=C(c3ccc(Cl)cc3Cl)C(=O)NC2=O)c2ccccc21 [SB216763, reference compound]
[1]
  % co-localization of tau and PSD-95 in Aβ1-42-treated neurons: decreased % tau/PSD-95 co-localization
  relative tau intensity in Aβ1-42-treated neurons: mirrors the effects of leptin

## C[C@H](NC(=O)/C(C#N)=C/c1cccc(Br)n1)c1ccccc1 [WP1066, reference compound]
[2]; WP1066 5 μM, wortmannin 50 nM
  effect of inhibitor on leptin (116-130)-mediated neuroprotection (LDH): prevented leptin (116-130)-mediated neuroprotection

## GLQKPE (listed as Mus musculus) [leptin (124-129)]
[2]
  reduction of LDH release compared with Aβ1-42 alone, hexamer study: did not
Acute hippocampal slices
  magnitude of LTP after HFS (100 Hz, 1 s): 137±5.6 % of baseline
[3]
  increase in mitochondrial activity compared with Aβ1-42 alone: did not
[4]
  reduction of p-tau expression compared with Aβ1-42 alone: did not
[5]
  GluA1 surface expression, hexamer study: 89±6 % of control

## LQKPES (SCHLPWASGL; listed as Homo sapiens) [leptin (125-130)]
[2]
  reduction of LDH release compared with Aβ1-42 alone, hexamer study: did not
Acute hippocampal slices
  magnitude of LTP after HFS (100 Hz, 1 s): 137±2.4 % of baseline
[3]
  increase in mitochondrial activity compared with Aβ1-42 alone: did not
[4]
  reduction of p-tau expression compared with Aβ1-42 alone: did not
[5]
  GluA1 surface expression, hexamer study: 98±5 % of control

## PQTSGL (listed as Mus musculus) [leptin (120-125)]
Acute hippocampal slices
  magnitude of LTP after HFS (100 Hz, 1 s): 163±8.8 % of baseline
[5]
  GluA1 surface expression, hexamer study: increased the surface expression of GluA1

## SLPQTS (listed as Mus musculus) [leptin (118-123)]
Acute hippocampal slices
  magnitude of LTP after HFS (100 Hz, 1 s): 158±3.8 % of baseline
[5]
  GluA1 surface expression, hexamer study: increased the surface expression of GluA1

## bisperoxovanadium [bpV, reference compound]
[5]; bpV 50 nM, 30 min
  GluA1 surface expression, agent alone (PTEN study): 148±8 % of control

## leptin (121-126): leptin fragment amino acids 121-126 (WASGLE; UniProt P41159 121-126, looked up, fragment)
[5]
  GluA1 surface expression, hexamer study: failed to significantly alter the surface expression of GluA1

## leptin (122-128): leptin fragment amino acids 122-128 (ASGLETL; UniProt P41159 122-128, looked up, fragment)
[5]
  GluA1 surface expression, hexamer study: failed to significantly alter the surface expression of GluA1
